Reference: publication PMC5218480 (PLoS ONE, 2017)

Tested on: MV-4-11 cells
Assay: Gene expression microarray analysis (Affymetrix PrimeView) and GSEA
Assay type: cell-based, human
Parameters: RFU PODN (11730768_x_at) / Fold change /veh PODN (11730768_x_at) / RFU LINC00158 (11744669_a_at) / Fold change /veh LINC00158 (11744669_a_at) / RFU DUSP10 (11751237_a_at) / Fold change /veh DUSP10 (11751237_a_at) / RFU ID3 (11757404_x_at) / Fold change /veh ID3 (11757404_x_at) / RFU PLEKHG5 (11737974_s_at) / Fold change /veh PLEKHG5 (11737974_s_at) / RFU LRRC4B (11730491_at) / Fold change /veh LRRC4B (11730491_at) / RFU GIMAP4 (11747438_a_at) / Fold change /veh GIMAP4 (11747438_a_at) / RFU KRT8 (11758183_x_at) / Fold change /veh KRT8 (11758183_x_at) / RFU CNN1 (11734310_a_at) / Fold change /veh CNN1 (11734310_a_at) / RFU VPS37D (11726825_at) / Fold change /veh VPS37D (11726825_at) / RFU C10orf10 (11716522_x_at) / Fold change /veh C10orf10 (11716522_x_at) / RFU KIR2DL2 /// KIR2DL4 /// KIR2DL5A /// KIR2DL5B /// KIR2DS1 /// KIR2DS2 /// KIR2DS3 /// KIR2DS4 /// KIR3DL3 /// KIR3DL3 /// KIR3DS1 (11738374_at) / Fold change /veh KIR2DL2 /// KIR2DL4 /// KIR2DL5A /// KIR2DL5B /// KIR2DS1 /// KIR2DS2 /// KIR2DS3 /// KIR2DS4 /// KIR3DL3 /// KIR3DL3 /// KIR3DS1 (11738374_at) / RFU C1QL1 (11718748_at) / Fold change /veh C1QL1 (11718748_at) / RFU TMPRSS4 (11747572_a_at) / Fold change /veh TMPRSS4 (11747572_a_at) / RFU HAMP (11756126_x_at) / Fold change /veh HAMP (11756126_x_at) / RFU RNFT2 (11725882_a_at) / Fold change /veh RNFT2 (11725882_a_at) / RFU NR4A2 (11747474_a_at) / Fold change /veh NR4A2 (11747474_a_at) / RFU ABCC12 (11746883_a_at) / Fold change /veh ABCC12 (11746883_a_at) / RFU TMEM136 (11760407_x_at) / Fold change /veh TMEM136 (11760407_x_at) / RFU CLDN22 /// WWC2 (11732394_at) / Fold change /veh CLDN22 /// WWC2 (11732394_at) / RFU HLA-DPB1 (11760878_x_at) / Fold change /veh HLA-DPB1 (11760878_x_at) / RFU SPINT1 (11716480_a_at) / Fold change /veh SPINT1 (11716480_a_at) / RFU GAP43 (11754022_s_at) / Fold change /veh GAP43 (11754022_s_at) / RFU A4GNT (11735810_at) / Fold change /veh A4GNT (11735810_at) / RFU PRB3 (11715151_x_at) / Fold change /veh PRB3 (11715151_x_at) / RFU TUBB4B (11761932_at) / Fold change /veh TUBB4B (11761932_at) / RFU CAPN14 (11732068_a_at) / Fold change /veh CAPN14 (11732068_a_at) / RFU TMCC2 (11721928_a_at) / Fold change /veh TMCC2 (11721928_a_at) / RFU IRGQ (11745062_a_at) / Fold change /veh IRGQ (11745062_a_at) / RFU FAM174B (11720279_a_at) / Fold change /veh FAM174B (11720279_a_at) / RFU TMPRSS4 (11748680_a_at) / Fold change /veh TMPRSS4 (11748680_a_at) / RFU FAM212B (11763350_a_at) / Fold change /veh FAM212B (11763350_a_at) / RFU PLEKHG5 (11743358_a_at) / Fold change /veh PLEKHG5 (11743358_a_at) / RFU ZSCAN30 (11745921_a_at) / Fold change /veh ZSCAN30 (11745921_a_at) / RFU CMKLR1 (11741424_a_at) / Fold change /veh CMKLR1 (11741424_a_at) / RFU LOC101060620 /// MAPK8IP1 (11723275_at) / Fold change /veh LOC101060620 /// MAPK8IP1 (11723275_at) / RFU SPTSSB (11747773_x_at) / Fold change /veh SPTSSB (11747773_x_at) / RFU PRSS12 (11739890_at) / Fold change /veh PRSS12 (11739890_at) / RFU BIN1 (11741810_x_at) / Fold change /veh BIN1 (11741810_x_at) / RFU WNT11 (11732464_a_at) / Fold change /veh WNT11 (11732464_a_at) / RFU C10orf10 (11716521_a_at) / Fold change /veh C10orf10 (11716521_a_at) / RFU C5orf56 (11738089_at) / Fold change /veh C5orf56 (11738089_at) / RFU CYB561 (11721691_x_at) / Fold change /veh CYB561 (11721691_x_at) / RFU ANKRD19P (11752326_a_at) / Fold change /veh ANKRD19P (11752326_a_at) / RFU OR2T12 /// OR2T33 /// OR2T8 (11738714_s_at) / Fold change /veh OR2T12 /// OR2T33 /// OR2T8 (11738714_s_at) / RFU VCAN (11748164_a_at) / Fold change /veh VCAN (11748164_a_at) / RFU JSRP1 (11732532_at) / Fold change /veh JSRP1 (11732532_at) / RFU KRTAP10-11 (11738290_x_at) / Fold change /veh KRTAP10-11 (11738290_x_at) / RFU MYO3A (11730013_a_at) / Fold change /veh MYO3A (11730013_a_at) / RFU EBF3 (11725865_a_at) / Fold change /veh EBF3 (11725865_a_at) / RFU CAMK2N1 (11719241_x_at) / Fold change /veh CAMK2N1 (11719241_x_at) / RFU C5orf56 (11738088_a_at) / Fold change /veh C5orf56 (11738088_a_at) / RFU OLFML3 (11715873_a_at) / Fold change /veh OLFML3 (11715873_a_at) / RFU LOC100653217 /// NTM (11731650_a_at) / Fold change /veh LOC100653217 /// NTM (11731650_a_at) / RFU MAPK11 (11762145_a_at) / Fold change /veh MAPK11 (11762145_a_at) / RFU FIZ1 (11724087_x_at) / Fold change /veh FIZ1 (11724087_x_at) / RFU OASL (11726364_x_at) / Fold change /veh OASL (11726364_x_at) / RFU SOX15 (11748057_x_at) / Fold change /veh SOX15 (11748057_x_at) / RFU CD79A (11719716_a_at) / Fold change /veh CD79A (11719716_a_at) / RFU HIST1H1D (11736915_at) / Fold change /veh HIST1H1D (11736915_at) / RFU CASKIN2 (11723855_a_at) / Fold change /veh CASKIN2 (11723855_a_at) / RFU LOC730098 (11760151_x_at) / Fold change /veh LOC730098 (11760151_x_at) / RFU OR4N2 (11742367_at) / Fold change /veh OR4N2 (11742367_at) / RFU PRRT2 (11749266_a_at) / Fold change /veh PRRT2 (11749266_a_at) / RFU SNX32 (11753110_a_at) / Fold change /veh SNX32 (11753110_a_at) / RFU CDHR5 (11726645_a_at) / Fold change /veh CDHR5 (11726645_a_at) / RFU RCAN1 (11760418_a_at) / Fold change /veh RCAN1 (11760418_a_at) / RFU FAM167A (11723789_a_at) / Fold change /veh FAM167A (11723789_a_at) / RFU FAM26E (11764081_at) / Fold change /veh FAM26E (11764081_at) / RFU ISYNA1 (11749810_s_at) / Fold change /veh ISYNA1 (11749810_s_at) / RFU ACY1 (11761880_at) / Fold change /veh ACY1 (11761880_at) / RFU 11764098_at / Fold change /veh 11764098_at / RFU SAMD14 (11745864_x_at) / Fold change /veh SAMD14 (11745864_x_at) / RFU NPB (11741838_a_at) / Fold change /veh NPB (11741838_a_at) / RFU TMPRSS6 (11731388_a_at) / Fold change /veh TMPRSS6 (11731388_a_at) / RFU KRTAP10-2 (11738614_at) / Fold change /veh KRTAP10-2 (11738614_at) / RFU ARHGAP8 /// PRR5-ARHGAP8 (11727945_x_at) / Fold change /veh ARHGAP8 /// PRR5-ARHGAP8 (11727945_x_at) / RFU KRTAP5-7 /// NADSYN1 (11734609_at) / Fold change /veh KRTAP5-7 /// NADSYN1 (11734609_at) / RFU RASL12 (11751679_a_at) / Fold change /veh RASL12 (11751679_a_at) / RFU CDKN2B (11736163_a_at) / Fold change /veh CDKN2B (11736163_a_at) / RFU PRF1 (11729649_at) / Fold change /veh PRF1 (11729649_at) / RFU, ZNF638 /// ZNF638-IT1 / Fold change vs veh, ZNF638 /// ZNF638-IT1 / RFU, PANK3 / Fold change vs veh, PANK3 / RFU, SH3YL1 / Fold change vs veh, SH3YL1 / RFU, ZEB2 / Fold change vs veh, ZEB2 / RFU, NRIP1 / Fold change vs veh, NRIP1 / RFU, PTTG1IP / Fold change vs veh, PTTG1IP / RFU, CAPN2 / Fold change vs veh, CAPN2 / RFU, MED14 / Fold change vs veh, MED14 / RFU, SNORA58 / Fold change vs veh, SNORA58 / RFU, C1orf63 / Fold change vs veh, C1orf63 / RFU, LRRFIP1 / Fold change vs veh, LRRFIP1 / RFU, NDUFAF7 / Fold change vs veh, NDUFAF7 / RFU, SLC12A2 / Fold change vs veh, SLC12A2 / RFU, IBTK / Fold change vs veh, IBTK / RFU, ESF1 / Fold change vs veh, ESF1 / Fold change vs veh, TMEM50B / RFU, TAOK1 / Fold change vs veh, TAOK1 / RFU, ACBD3 / Fold change vs veh, ACBD3 / RFU, TMA16 / Fold change vs veh, TMA16 / RFU, RWDD3 / Fold change vs veh, RWDD3 / RFU, BCAT1 / Fold change vs veh, BCAT1 / RFU, EDEM3 / Fold change vs veh, EDEM3 / RFU, TMEM33 / Fold change vs veh, TMEM33 / RFU, WDR75 / Fold change vs veh, WDR75 / RFU, AHCTF1 / Fold change vs veh, AHCTF1 / RFU, TFRC / Fold change vs veh, TFRC / RFU, ZDHHC17 / Fold change vs veh, ZDHHC17 / RFU, NOM1 / Fold change vs veh, NOM1 / RFU, ARL8B / Fold change vs veh, ARL8B / RFU, ZBTB11 / Fold change vs veh, ZBTB11 / RFU, TAMM41 / Fold change vs veh, TAMM41 / RFU, KIAA1704 /// LOC100996395 / Fold change vs veh, KIAA1704 /// LOC100996395 / RFU, ING1 / Fold change vs veh, ING1 / RFU, TRMT61B / Fold change vs veh, TRMT61B / RFU, FUBP3 / Fold change vs veh, FUBP3 / RFU, TP53 / Fold change vs veh, TP53 / RFU, TNKS2 / Fold change vs veh, TNKS2 / RFU, ZFP14 / Fold change vs veh, ZFP14 / RFU, ACTR2 / Fold change vs veh, ACTR2 / RFU, PPP3R1 / Fold change vs veh, PPP3R1 / RFU, PIK3R1 / Fold change vs veh, PIK3R1 / RFU, HNRNPA1 / Fold change vs veh, HNRNPA1 / RFU, RNF170 / Fold change vs veh, RNF170 / RFU, ZNF28 / Fold change vs veh, ZNF28 / RFU, RNGTT / Fold change vs veh, RNGTT / RFU, OGT / Fold change vs veh, OGT / RFU, BRD1 / Fold change vs veh, BRD1 / RFU, MARS / Fold change vs veh, MARS / RFU, ZNF655 / Fold change vs veh, ZNF655 / RFU, FAHD1 / Fold change vs veh, FAHD1 / RFU, BDP1 / Fold change vs veh, BDP1 / RFU, LRRCC1 / Fold change vs veh, LRRCC1 / RFU, ARID1A / Fold change vs veh, ARID1A / RFU, ZNF146 / Fold change vs veh, ZNF146 / RFU, ZNF330 / Fold change vs veh, ZNF330 / RFU, GPN3 / Fold change vs veh, GPN3 / RFU, C9orf123 / Fold change vs veh, C9orf123 / RFU, N4BP2L2 / Fold change vs veh, N4BP2L2 / RFU, ARFIP1 / Fold change vs veh, ARFIP1 / RFU, FAM179B / Fold change vs veh, FAM179B / RFU, BCL10 / Fold change vs veh, BCL10 / RFU, UHRF1BP1L / Fold change vs veh, UHRF1BP1L / RFU, BET1 / Fold change vs veh, BET1 / RFU, CNOT2 / Fold change vs veh, CNOT2 / RFU, ZNF268 / Fold change vs veh, ZNF268 / Fold change vs veh, ZNF507 / RFU, DGCR2 / Fold change vs veh, DGCR2 / RFU, WDSUB1 / Fold change vs veh, WDSUB1 / Fold change vs veh, HSP90B1 /// MIR3652 / RFU, ADSS / Fold change vs veh, ADSS / RFU, GK / Fold change vs veh, GK / RFU, ZNF148 / Fold change vs veh, ZNF148 / RFU, TAF9 / Fold change vs veh, TAF9 / RFU, SLC1A5 / Fold change vs veh, SLC1A5 / RFU, SLMO2 / Fold change vs veh, SLMO2 / RFU, ABCC4 / Fold change vs veh, ABCC4 / RFU, LOC101060439 /// RAP1B / Fold change vs veh, LOC101060439 /// RAP1B / RFU, RFX7 / Fold change vs veh, RFX7 / RFU, GTPBP10 / Fold change vs veh, GTPBP10 / RFU, CNEP1R1 / Fold change vs veh, CNEP1R1 / RFU, BIVM-ERCC5 /// ERCC5 / Fold change vs veh, BIVM-ERCC5 /// ERCC5 / RFU, ILF3 / Fold change vs veh, ILF3 / RFU 11762660_at / Fold change /veh 11762660_at / RFU VCAN (11757783_s_at) / Fold change /veh VCAN (11757783_s_at) / RFU DDX43 (11728927_at) / Fold change /veh DDX43 (11728927_at) / RFU KRT8 (11758188_x_at) / Fold change /veh KRT8 (11758188_x_at) / RFU NKD1 (11759106_at) / Fold change /veh NKD1 (11759106_at) / RFU SRD5A1 (11742802_a_at) / Fold change /veh SRD5A1 (11742802_a_at) / RFU TPSAB1 /// TPSB2 (11721975_s_at) / Fold change /veh TPSAB1 /// TPSB2 (11721975_s_at) / RFU GSTM3 (11746129_a_at) / Fold change /veh GSTM3 (11746129_a_at) / RFU IL23R (11737362_x_at) / Fold change /veh IL23R (11737362_x_at) / RFU TMEM51 (11727254_a_at) / Fold change /veh TMEM51 (11727254_a_at) / RFU PIWIL2 (11732686_x_at) / Fold change /veh PIWIL2 (11732686_x_at) / RFU ORM1 (11744905_x_at) / Fold change /veh ORM1 (11744905_x_at) / RFU CCDC152 (11743942_at) / Fold change /veh CCDC152 (11743942_at) / RFU ECM1 (11717891_a_at) / Fold change /veh ECM1 (11717891_a_at) / RFU IL23R (11748794_a_at) / Fold change /veh IL23R (11748794_a_at) / RFU TNFAIP8L3 (11732012_x_at) / Fold change /veh TNFAIP8L3 (11732012_x_at) / RFU MBOAT4 (11741988_at) / Fold change /veh MBOAT4 (11741988_at) / RFU 11764193_at / Fold change /veh 11764193_at / RFU TMEM53 (11763286_at) / Fold change /veh TMEM53 (11763286_at) / RFU MAGEB2 (11727129_at) / Fold change /veh MAGEB2 (11727129_at) / RFU TMEM200A (11744735_a_at) / Fold change /veh TMEM200A (11744735_a_at) / RFU CCDC152 (11751479_a_at) / Fold change /veh CCDC152 (11751479_a_at) / RFU FAM211A (11726209_a_at) / Fold change /veh FAM211A (11726209_a_at) / RFU RGS16 (11746705_a_at) / Fold change /veh RGS16 (11746705_a_at) / RFU VCAN (11755009_s_at) / Fold change /veh VCAN (11755009_s_at) / RFU RHOB (11743442_s_at) / Fold change /veh RHOB (11743442_s_at) / RFU RGS16 (11720943_a_at) / Fold change /veh RGS16 (11720943_a_at) / RFU RGS16 (11720944_at) / Fold change /veh RGS16 (11720944_at) / RFU, VPS4B / Fold change vs veh, VPS4B / RFU, CREB1 / Fold change vs veh, CREB1 / RFU, DNAJC13 / Fold change vs veh, DNAJC13 / RFU, GNAQ / Fold change vs veh, GNAQ / RFU, CDK5R1 / Fold change vs veh, CDK5R1 / RFU, ZRANB3 / Fold change vs veh, ZRANB3 / RFU, CUL4A / Fold change vs veh, CUL4A / RFU, CCNY / Fold change vs veh, CCNY / RFU, UFL1 / Fold change vs veh, UFL1 / RFU, COG3 / Fold change vs veh, COG3 / RFU, DIAPH2 / Fold change vs veh, DIAPH2 / RFU, SKA2 / Fold change vs veh, SKA2 / RFU, AFF3 / Fold change vs veh, AFF3 / RFU, LMF1 / Fold change vs veh, LMF1 / RFU, IPO11 / Fold change vs veh, IPO11 / RFU, DFFB / Fold change vs veh, DFFB / RFU, FOXP1 / Fold change vs veh, FOXP1 / RFU, CARD8 / Fold change vs veh, CARD8 / RFU, STRN3 / Fold change vs veh, STRN3 / RFU, ADK / Fold change vs veh, ADK / RFU, RASSF2 / Fold change vs veh, RASSF2 / RFU, WIPF1 / Fold change vs veh, WIPF1 / RFU, LARP1B / Fold change vs veh, LARP1B / RFU, RASA1 / Fold change vs veh, RASA1 / RFU, RB1 / Fold change vs veh, RB1 / RFU, PPFIA1 / Fold change vs veh, PPFIA1 / RFU, MAT2A / Fold change vs veh, MAT2A / RFU, CCT5 / Fold change vs veh, CCT5 / RFU, WDR92 / Fold change vs veh, WDR92 / RFU, CUX1 / Fold change vs veh, CUX1 / RFU, TTC7A / Fold change vs veh, TTC7A / RFU, TMEM135 / Fold change vs veh, TMEM135 / RFU, DEPTOR / Fold change vs veh, DEPTOR / RFU, CPM / Fold change vs veh, CPM / RFU, DNAJB6 / Fold change vs veh, DNAJB6 / RFU, CACNA2D3 / Fold change vs veh, CACNA2D3 / RFU, DTX4 / Fold change vs veh, DTX4 / RFU, TFCP2 / Fold change vs veh, TFCP2 / RFU, GMCL1 /// GMCL1P1 / Fold change vs veh, GMCL1 /// GMCL1P1 / RFU, AEBP2 / Fold change vs veh, AEBP2 / RFU, SNHG1 /// SNORD22 /// SNORD25 /// SNORD26 /// SNORD27 /// SNORD28 /// SNORD29 /// SNORD31 / Fold change vs veh, SNHG1 /// SNORD22 /// SNORD25 /// SNORD26 /// SNORD27 /// SNORD28 /// SNORD29 /// SNORD31 / Fold change (Aza/veh), C12orf56 (ProbeSet 11735607_a_at) / Fold change (ACY-1035/veh), C12orf56 (ProbeSet 11735607_a_at) / Fold change (Aza/veh), FGFR1OP (ProbeSet 11751329_s_at) / Fold change (ACY-1035/veh), FGFR1OP (ProbeSet 11751329_s_at) / Fold change (Aza/veh), VPS36 (ProbeSet 11739960_a_at) / Fold change (ACY-1035/veh), VPS36 (ProbeSet 11739960_a_at) / RFU SYPL1 (11715823_x_at) / Fold change /veh SYPL1 (11715823_x_at) / RFU IGFBP7 (11715501_s_at) / Fold change /veh IGFBP7 (11715501_s_at) / RFU REEP3 (11722064_at) / Fold change /veh REEP3 (11722064_at) / RFU IGLL1 (11728026_x_at) / Fold change /veh IGLL1 (11728026_x_at): dose or concentration left out as unconfirmed
Settings: MV-4-11 cells, 48 hours

Structure (SMILES): Nc1ccc(-c2cccs2)cc1NC(=O)c1ccc2c(c1)cc(C1CC1)n2CCN1CCOCC1 [ACY-1035]
- RFU MAGEB2 (11727129_at): 5.89 RFU
